Results published in patent US6833150B1, “Spray -dried bacteriocin powder with anti-microbial activity” (Teagasc, The Agriculture and Food Development Authority, priority 2001, dated 2004).

How the values were obtained:
[1] = tested on: L. lactis subsp lactis HP; experiment: Bacteriocin activity by agar well diffusion assay; format: cell-based, Lactococcus lactis; details: for Bacteriocin activity: 10% reconstituted demineralized whey powder; for Lacticin 3147 activity: overnight incubation at 30° C.
Method: Bacteriocin activity was determined by the agar well diffusion assay as described by Parente and Hill (15). Molten agar was seeded with an indicator strain and dispensed into petri dishes. Wells of approximately 4.6 mm in diameter were bored in the agar and a 50 μl volume of a two fold serial dilution of a bacteriocin preparation was dispensed into each well. Bacteriocin solution was prepared by centrifuging the culture and heat treating the supernatant at 70° C. for 10 minutes prior to carrying out the dilution series. The plates were then incubated at either 30° C. or 37° C., depending on the indicator strain used. Bacteriocin activity was calculated as the inverse of the last dilution that gave a definite zone of clearance after overnight incubation. Activity units (AU) were expressed per milliliter (1/dilution, ×20).
(§1) Activity of both lacticin 3147 preparations was determined by the agar well diffusion assay as described by Parente and Hill (15). Molten agar was seeded with the indicator strain L. lactis subsp. lactis HP and dispensed into petri dishes. Wells of approximately 6.0 mm in diameter were bored in the agar and a 50 μl volume of a two fold serial dilution of a bacteriocin preparation was dispensed into each well. The plates were then incubated at 30° C. Bacteriocin activity was calculated as the inverse of the last dilution that gave a definite zone of clearance after overnight incubation. Activity units (AU) were expressed per milliliter (1/dilution, ×20). Activity may also be expressed as zone diameter (mm), where the diameter of the first zone (neat, undiluted sample) of the dilution series is recorded.

[2] = tested on: L. lactis HP; experiment: Effect of high pressure on lacticin 3147 activity (well diffusion assay); format: cell-based, Lactococcus lactis; details: pressures greater than 400 MPa
Method: as §1
Pressurised and non-pressurised solutions of lacticin 3147 were heat treated at 80° C. for 10 minutes prior to carrying out activity determination by the well diffusion assay using L. lactis HP as an indicator strain.

[3] = tested on: Staph. aureus ATCC6538; experiment: High pressure and lacticin 3147 inactivation in milk (10% RSM); format: cell-based, Staphylococcus aureus
Method: For the inactivation of Staph. aureus ATCC6538 a liquid preparation of lacticin 3147 was prepared using hydrophobic adsorption chromatography. For studies on inactivation of L. innocua DPC1770 a food grade powdered preparation of lacticin 3147 was manufactured as described above with the following modification; a 1% demineralised whey powder solution was fermented with L. lactis subsp. lactis DPC3147 under pH controlled conditions of pH 6.0 for 18 hours.
Staph. aureus ATCC6538 cells were resuspended in 10% RSM and aliquoted into sterile 700 μl PCR eppendorfs prior to placing in sterile stomacher bags (Seward Ltd., London, UK). Ten millilitre volumes of L. innocua DPC1770 cells were resuspended in 20% reconstituted demineralised whey powder aliquoted into sterile stomacher bags. Samples were individually vacuum sealed prior to placing in the pressure vessel (Stansted Fluid Power Ltd., Stansted, England). The vessel consisted of a stainless-steel cylinder (37 mm diameter×300 mm height) filled with a 15% (v/v) caster oil in ethanol solution which acts as the hydrostatic pressurisation medium. Samples were treated for 30 min at 25° C. in the pressure range 150 to 600 MPa, in addition to a control sample being held at atmospheric pressure (0.1 MPa). […] The chamber temperature was determined by means of a thermoregulating system which circulated to maintain the chamber temperature.

[4] = tested on: Gram-positive organisms, including Listeria, Clostridium spp., Enterococcus, Staphylococcus and Streptococcus; details: cited from earlier work

Substance: lacticin 3147
- Bacteriocin activity ([1]; constant pH 6.0, 30° C.): 5120 AU/ml
- Bacteriocin activity ([1]; constant pH 7.0, 30° C.): 5120 AU/ml
- Bacteriocin activity ([1]; no pH control, 30° C.): 640 AU/ml
- Bacteriocin activity ([1]; pH held constant at pH 6.5, 30° C.): 10,240 AU/ml
- Effect of pasteurisation on bacteriocin activity ([1]; 72° C. for 15 sec): no effect
- Bacteriocin activity during manufacture ([1]; after evaporation at 60° C. from 10% to 40% total solids): 40,960 AU/ml
- Activity of the concentrate following overnight crystallisation ([1]; cooled from 32° C. at 1° C. per hour overnight): remained stable
- Bacteriocin activity during manufacture ([1]; following the pH controlled 170 L fermentation (pH 6.5, 10% total solids)): 10,240 AU/ml
- Lacticin 3147 activity ([1]; growth medium 10% reconstituted demineralised whey powder): 1,280 AU/ml
- Lacticin 3147 activity ([1]; growth medium 10% reconstituted demineralised whey powder, listed as Lacticin 3147): 1280 AU/ml
- Lacticin 3147 activity ([1]; growth medium 10% reconstituted skimmed milk powder): 1,280 AU/ml
- Lacticin 3147 activity ([1]; growth medium 10% reconstituted skimmed milk powder, listed as Lacticin 3147): 1280 AU/ml
- Lacticin 3147 activity ([1]; growth medium Cheddar cheese whey): 2,560 AU/ml
- Lacticin 3147 activity ([1]; growth medium Cheddar cheese whey, listed as Lacticin 3147): 2560 AU/ml
- Lacticin 3147 activity ([1]; growth medium LM17): 2,560 AU/ml
- Lacticin 3147 activity ([1]; growth medium LM17, listed as Lacticin 3147): 2560 AU/ml
- Lacticin 3147 activity ([1]; growth medium TY broth): 640 AU/ml
- Lacticin 3147 activity ([1]; growth medium whey protein concentrate (WPC35)): 320 AU/ml
- Lacticin 3147 activity ([1]; growth medium whole milk): 2,560 AU/ml
- Lacticin 3147 activity ([1]; growth medium whole milk, listed as Lacticin 3147): 2560 AU/ml
- Lacticin 3147 activity expressed as AU/g of dry matter throughout manufacture ([1]; remained constant through pasteurisation, evaporation, crystallisation, spray drying): 102,400 AU/g
- change in bacteriocin activity after pressure treatment [2]: doubling of activity
- logs of kill ([3]; combination of 250 MPa and lacticin 3147, 30 min at 25° C.): more than 6 logs
- log reduction ([3]; concentrated lacticin 3147 from culture supernatant alone): 1 log
- inhibitory spectrum [4]: inhibitory to a wide range of Gram-positive organisms
